Laboratory results as given in patent publication US20070160553A1, “Use of agents for the cosmetic treatment of keratin-containing material” (WELLA AG, priority 2004, published 2007).
Several values for one entry are separate records, joined by “and”; a condition that tells them apart may be missing. Equal entries are not always repeated. Where two headings read alike, the source gives them in different places.

Key:
[1] = Conventional hair-care effects (combability, luster, volume, friction); conditions: in appropriate formulations
Text: This is in stark contrast to the known hair-care actions of other representatives of this class of substances, for example of betaine (trimethylammonioacetate) or carnitine [3-hydroxy-4-(trimethylammonio)butyric acid]. […] Other hair-care criteria such as an increase in hair volume or an improvement in the hair fullness or hair styling were also not observed.
Tests for determining the triboelectric properties have also shown that depending on the use concentration of compounds of formulas (I) and (II) the electrostatic chargability of hair was reduced. […] This is particularly surprising considering that in no comparative test did the formulation containing as active ingredient a compound of formula (I) and (II) show a reduction in the mechanical coefficient of friction. […] The protective function therefore is independent of the typical hair-care criteria and consists only of attenuating the effects of hair-damaging factors.

[2] = bleached hair, cycles until 63.2% of hairs are broken
Text: The measurements of rubbing resistance make it possible to draw conclusions concerning the resistance of the hair to mechanical stresses. The measuring principle consists of exposing individual hair fibers to repeated (small) mechanical stresses and measuring the number of repeating cycles needed to make the material break. A higher number of stressing cycles indicates a higher resistance of the hair to mechanical stresses. The evaluation of the hair resistance test results, which initially consists only of determining the number of stressing cycles to hair breakage for each individual hair, is carried out by Weibull's reliability analysis. According to Weibull, the breakage frequency (here: hair breakage) can be described by the following equation: H=1−exp[−(x/Θ)]b linearized: lnln[1/(1−H)]=b(ln x)−b(ln Θ) H=breakage frequency (=cumulated hair breakage), normalized to 1 (1=100%) X=lifetime variable (=cycles to hair breakage) Θ=characteristic lifetime (number of cycles until 63.2% of the hairs are broken) b=shape parameter, slope of the fitted straight lines.
For the Weibull analysis, therefore, that data must be plotted as lnln(1/1−H) against Inx. After linear regression, the axial segment indicates b(ln Θ) and the slope gives b. The characteristic lifetime E is then obtained from exp[−(axial segment/slope)]. The longer the characteristic lifetime, the higher is the resistance of the hair to breakage.
Another important parameter for determining the condition of the hair or the degree of damage to the hair is the determination of the rubbing resistance as a measure of the mechanical weakening of the hair (see legend for FIG. 1) [sic].
To this end, after previous standardized bleaching, strands of human hair (of Caucasian origin), were subjected to the strongly weakening conditions of a permanent wave procedure or a hair tinting by standardized methods. Then, the ends of 20 individual hairs per sample, namely of 10 individual hairs per strand, were fastened to holders, and the rubbing resistance was measured.

[3] = shampoo as in Example 6, 2.0 wt. % active; 20 hairs; control without active 12.0
Protocol: The determination of the tear strength of hair, which is an indicator of the structural integrity of the hair cortex and thus a measure of the degree of damage, was carried out by tensile-elongation measurements common for these purposes. From each hair strand we selected 20 individual hairs and determined the individual hair diameters with a computer-controlled laser micrometer. Then, by means of a tensile-elongation tester (MTT 160/600 Series Miniature Tensile Tester, Serial No. 600.95.05.001, supplied by DIA-STRON Ltd, England), the force needed to tear the individual hairs was measured.
From these individual tear strength measurements which because of the different hair diameters gave different values, the bundle tensile strength (BTS) was calculated by taking 0.08 mm for a hair diameter (average diameter). By including the hair density, finally, the conversion into the unit of bundle tensile strength (cN/tex) was performed. The higher the numerical value of the bundle tensile strength, the lower is the hair damage.

[4] = active present in permanent wave products, compared to otherwise identically treated hair
Text: Tear strength is viewed as a parameter for determining damage to hair; the higher the force needed to tear a hair, the better is the hair quality.

SMILES: C[N+](C)(C)CC(=O)[O-] [betaine, trimethylammonioacetate]
- combability [1]: pronounced improvement
- luster of the hair [1]: definitely improved

SMILES: C[n+]1cccc(C(=O)[O-])c1 [1-methylpyridinium-3-carboxylate]
- Characteristic Lifetime ([2]; hair tinting agent + 0.1% active): increase
- Characteristic Lifetime ([2]; hair tinting agent + 0.1% active, listed as 1-methylpyridium-3-carboxylate): 568
- Characteristic Lifetime ([2]; hair tinting agent + 1% active): even higher than those shown by the chemically untreated (unbleached, natural) hair
- Characteristic Lifetime ([2]; hair tinting agent + 1% active, listed as 1-methyl-pyridinium-3-carboxylate): further increase
- Characteristic Lifetime ([2]; hair tinting agent + 1% active, listed as 1-methylpyridium-3-carboxytate): 643
- Characteristic Lifetime ([2]; permanent wave formulation with 0.5% active, listed as 1-methylpyridium-3-carboxylate): 546
- bundle tensile strength (BTS) [3]: 12.64±0.4 cN/tex and 12.64 cN/tex
- tear strength [4]: significant increase
- hair strand volume after combing (electrostatic charge) (bleached strands, hair-treatment preparation with 0.5% active, 5 minutes, vs untreated control): obviously smaller volume than the untreated control hairs

SMILES: C[n+]1cccc(C(=O)[O-])c1.Cl [1-Methylpyridinium-3-carboxylate hydrochloride]
- antistatic effect (preparation containing 1% as the hydrochloride): statistically probable antistatic effect
